Test results published in US6528095B1, “Anti-atherosclerotic and anti-thrombotic agent and the use thereof” (Potchefstroom University for Christian Higher Education, priority 2000, dated 2003).

Tests used:
fibrin clot = assay: Supplementation in human males: haemostatic variables and characteristics of fibrin networks developed in plasma; assay type: in vivo; details: for CLOT (FIBRIN): clot fibrin content; for LYSIS TIME (t 50%): clot; for COMPACTION: fibrin clot; for MPC: macromolecular protein complex; for μ,: mass length ratio from turbidity; for FIBRINOGEN: plasma
Method: (§1) The respective effects of pectin and an acetate when administered to the colon of a mammal were determined during a first experiment. The experiment was conducted in the following two phases: [drawing 1]
(§2) Twenty human males participated in the experimentation and these subjects were not on any medication for any chronic diseases at the time, and also had no history of cardiovascular disease. All the subjects were at the time following a relatively high fibre, low fat diet. During the first phase ten subjects consumed a total of 15 grams of pectin per day in four aliquots, while the other ten consumed a total of 15 grams of placebo (starch) per day in four aliquots.
(§3) During the second phase, the first group consumed a total of 7.5 grams of calcium acetate per day in four aliquots and the second group consumed a total of 15 grams of pectin per day in four aliquots. The calcium acetate was administered in capsules which were coated with a protective coating comprising a resin known commercially as shellac. This protective coating is resistant to digestion and solution in the stomach and small intestines, is but not resistant to the enzymes of the organisms usually found in the colon, so that the calcium acetate was thus released in the colon.
(§4) Blood samples where taken from the subjects after each phase and a large number of variables where tested.

[1] = Pectin / calcium acetate supplementation in human males: body weight and BMI; assay type: in vivo
From the text: The acetate supplement (phase 2), however, caused a decrease (from 88.16±12.35 kg to 83.09±10.80 kg) in body weight. Although this decrease may not be of statistical significance, it can be clinically significant in the cases of those subjects who lost weight.

[2] = as above; assay type: in vivo; remark: listed apart in the source
[3] = Supplementation in human males: haemorheological variables (haematocrit, haemoglobin, plasma viscosity); assay type: in vivo; details: for VISCOSITY: plasma
Method: as §1, §2, §3, §4

[4] = Supplementation in human males: metabolic variables; details: for FFA: free fatty acids; for IR: insulin resistance; for TP: total protein
Method: as §1, §2, §3, §4

blood lipids = assay: Supplementation in human males: lipid variables; assay type: in vivo; details: for TC: total cholesterol; for TG: triglycerides
Method: as §1, §2, §3, §4

[5] = phase 1, end of supplementation (pectin 15 g/day)
[6] = phase 2, end of supplementation (pectin 15 g/day; calcium acetate 7.5 g/day)

pectin
CLOT (FIBRIN) (fibrin clot; phase 1, baseline): 2.22 g/L
CLOT (FIBRIN) (fibrin clot; [5]): 1.90 ± g/l
CLOT (FIBRIN) (fibrin clot; phase 2, baseline): 2.55 g/L
CLOT (FIBRIN) (fibrin clot; [6]): 1.86 ± g/l
LYSIS TIME (t 50%) (fibrin clot; phase 1, baseline): 285.6
LYSIS TIME (t 50%) (fibrin clot; [5]): 232.9 ±
LYSIS TIME (t 50%) (fibrin clot; phase 2, baseline): 285.6
LYSIS TIME (t 50%) (fibrin clot; [6]): 132.9 ±
COMPACTION (fibrin clot; phase 1, baseline): 21.51%
COMPACTION (fibrin clot; [5]): 30.16 ± %
COMPACTION (fibrin clot; phase 2, baseline): 20.67%
COMPACTION (fibrin clot; [6]): 31.53 ± %
MPC (fibrin clot; phase 1, baseline): 0.1218 g/L
MPC (fibrin clot; [5]): 0.0836 ± g/l
MPC (fibrin clot; phase 2, baseline): 0.1002 g/L
MPC (fibrin clot; [6]): 0.0807 ± g/l
μ, (fibrin clot; phase 1, baseline): 19.94 Dal/cm × 10^12
μ, (fibrin clot; [5]): 24.80 ± Dal/cm × 10^12
μ, (fibrin clot; phase 2, baseline): 19.02 Dal/cm × 10^12
μ, (fibrin clot; [6]): 32.10 ± Dal/cm × 10^12
FIBRINOGEN (fibrin clot; phase 1, baseline): 3.51 g/L
FIBRINOGEN (fibrin clot; [5]): 3.30 g/L
FIBRINOGEN (fibrin clot; phase 2, baseline): 4.11 g/L
FIBRINOGEN (fibrin clot; [6]): 3.72 g/L
BMI ([1]; phase 2, baseline): 29.46 kg/m^2
BODY WEIGHT ([1]; phase 2, baseline): 92.07 kg
BMI [1, 6]: 29.32 kg/m^2
BODY WEIGHT [1, 6]: 91.55 kg
weight reduction ([2]; pectin supplemented subject group): No weight reduction
BMI ([2]; phase 1, baseline): 27.50 kg/m^2
BODY WEIGHT ([2]; phase 1, baseline): 89.50 kg
BMI [2, 5]: 27.40 kg/m^2
BODY WEIGHT [2, 5]: 89.10 kg
HAEMATOCRIT ([3]; phase 1, baseline): 48.70%
HAEMOGLOBIN ([3]; phase 1, baseline): 10.30 mmol/L
HAEMATOCRIT [3, 5]: 48.10%
HAEMOGLOBIN [3, 5]: 9.60 ± mmol/l
HAEMATOCRIT ([3]; phase 2, baseline): 47.38%
HAEMOGLOBIN ([3]; phase 2, baseline): 10.82 mmol/L
HAEMATOCRIT [3, 6]: 45.39%
HAEMOGLOBIN [3, 6]: 9.75 ± mmol/l
VISCOSITY ([3]; phase 1, baseline): 1.81 cP
VISCOSITY [3, 5]: 1.60 ± cP
VISCOSITY ([3]; phase 2, baseline): 1.75 cP
VISCOSITY [3, 6]: 1.62 ± cP
FFA ([4]; phase 1, baseline): 0.39 mmol/L
FFA [4, 5]: 0.31 ± mmol/l
FFA ([4]; phase 2, baseline): 0.48 mmol/L
FFA [4, 6]: 0.40 ± mmol/l
IR ([4]; phase 1, baseline): 4.29
IR [4, 5]: 4.16
IR ([4]; phase 2, baseline): 9.40
IR [4, 6]: 5.77
ALBUMIN ([4]; phase 1, baseline): 47.23 g/L
GLUCOSE ([4]; phase 1, baseline): 3.98 mmol/L
INSULIN ([4]; phase 1, baseline): 10.95 μU/ml
PPA/ALB ([4]; phase 1, baseline): 8.26 × 10^1
ALBUMIN [4, 5]: 47.79 g/L
GLUCOSE [4, 5]: 3.72 mmol/L
INSULIN [4, 5]: 11.25 μU/ml
PPA/ALB [4, 5]: 6.49 ± × 10^1
ALBUMIN ([4]; phase 2, baseline): 45.53 g/L
GLUCOSE ([4]; phase 2, baseline): 4.29 mmol/L
INSULIN ([4]; phase 2, baseline): 18.55 μU/ml
PPA/ALB ([4]; phase 2, baseline): 10.50 × 10^1
ALBUMIN [4, 6]: 45.48 ± g/l
GLUCOSE [4, 6]: 4.00 mmol/L
INSULIN [4, 6]: 13.83 μU/ml
PPA/ALB [4, 6]: 8.78 ± × 10^1
TP ([4]; phase 1, baseline): 60.55 g/L
TP [4, 5]: 66.84 g/L
TP ([4]; phase 2, baseline): 72.36 g/L
TP [4, 6]: 75.21 g/L
decrease in hydrogen peroxide (free radical) content of blood lipids (blood lipids; pectin supplementation): 49%
% HDL-C (blood lipids; phase 1, baseline): 18.30%
ApoA (blood lipids; phase 1, baseline): 1.60 mmol/L
ApoB (blood lipids; phase 1, baseline): 1.70 mmol/L
HDL-C (blood lipids; phase 1, baseline): 1.20 mmol/L
LDL-C (blood lipids; phase 1, baseline): 4.70 mmol/L
TBARM (blood lipids; phase 1, baseline): 0.60 µM
hydrogen peroxide (H2O2) (blood lipids; phase 1, baseline): 1.70 µM
% HDL-C (blood lipids; [5]): 18.20 ± %
ApoA (blood lipids; [5]): 1.23 ± mmol/l
ApoB (blood lipids; [5]): 1.29 ± mmol/l
HDL-C (blood lipids; [5]): 1.03 ± mmol/l
LDL-C (blood lipids; [5]): 4.10 ± mmol/l
TBARM (blood lipids; [5]): 0.30 µM
hydrogen peroxide (H2O2) (blood lipids; [5]): 0.84 ± μM
% HDL-C (blood lipids; phase 2, baseline): 15.46%
ApoA (blood lipids; phase 2, baseline): 1.53 mmol/L
ApoB (blood lipids; phase 2, baseline): 1.77 mmol/L
HDL-C (blood lipids; phase 2, baseline): 0.92 mmol/L
LDL-C (blood lipids; phase 2, baseline): 5.17 mmol/L
TBARM (blood lipids; phase 2, baseline): 2.06 µM
hydrogen peroxide (H2O2) (blood lipids; phase 2, baseline): 1.20 µM
% HDL-C (blood lipids; [6]): 18.79 ± %
ApoA (blood lipids; [6]): 1.39 ± mmol/l
ApoB (blood lipids; [6]): 1.39 ± mmol/l
HDL-C (blood lipids; [6]): 1.13 ± mmol/l
LDL-C (blood lipids; [6]): 4.59 mmol/L
TBARM (blood lipids; [6]): 0.61 ± μM
hydrogen peroxide (H2O2) (blood lipids; [6]): 0.73 ± μM
TC (blood lipids; phase 1, baseline): 6.50 mmol/L
TC (blood lipids; [5]): 5.67 ± mmol/l
TC (blood lipids; phase 2, baseline): 6.89 mmol/L
TC (blood lipids; [6]): 6.07 mmol/L
TG (blood lipids; phase 1, baseline): 2.00 mmol/L
TG (blood lipids; [5]): 1.78 mmol/L
TG (blood lipids; phase 2, baseline): 1.99 mmol/L
TG (blood lipids; [6]): 1.78 mmol/L
